Key:
[1] = system: NFKB activity in reporter PANC-1 cells; experiment: NFKB luciferase reporter activity in PANC-1 cells; format: cell-based; settings: Homo sapiens; PANC-1 reporter cells, +10 ng/ml rHuTNF for 8 h
Protocol: Luciferase activity was normalized to PANC-1 cells treated with rHuTNF without inhibitor (DMSO only). Y-axis=NFKB activity (%). […] Whole cell lysates were analyzed in a Meso Scale Discovery (MSD) assay with anti-HDAC4 capture and anti-pHDAC4 detection antibodies. HDAC4 phosphorylation was normalized to untreated PANC-1 cells (DMSO only). Y-axis=HDAC4 phosphorylation (%). X-axis=Compound concentration (nM).
(§1) FIG. 28: depicts: (A) and (B) effect of compound E9 on NFKB activity. […] Luciferase activity was normalised to cells treated with rHuTNF without inhibitor (DMSO only). Y-axis=NFKB activity (%). X-axis=compound concentration (nM); Bar “A” viability without compound and without TNF; bar “B” viability without compound and with 10 ng/ml TNF; and (C) Effect of compound E9 on HDAC4 phosphorylation. […] Whole cell lysates were analysed in a Meso Scale Discovery (MSD) assay with anti-HDAC4 capture and anti-pHDAC4 detection antibodies. HDAC4 phosphorylation was normalized to untreated PANC-1 cells (DMSO only). Y-axis=HDAC4 phosphorylation (%). X-axis=Compound concentration (nM).

[2] = system: NFKB activity in reporter MC38 cells; experiment: NFKB luciferase reporter activity in MC38 cells; format: cell-based, murine; settings: Mus musculus, MC-38, +10 ng/ml rHuTNF for 8 h
Protocol: as §1

CSF1R = CSF1R (Homo sapiens (Human), UniProt P07333); format: biochemical; settings: Kinase Profiler
HCK = HCK (Homo sapiens (Human), UniProt P08631); format: biochemical; settings: Kinase Profiler
[3] = Human hepatocyte stability; format: in vitro ADME
[4] = Mouse hepatocyte stability; format: in vitro ADME; settings: hepatocytes
[5] = system: MC38 colorectal carcinoma tumours; experiment: MC38 syngeneic mouse model, E9 and anti-PD-1 alone and in combination (Example 10); format: in vivo, C57Bl/6N mice; settings: E9 25 mg/Kg twice daily and/or anti-PD-1 mAb
[6] = system: SIK3 WT and KO MC38 clones; experiment: TNF-mediated killing of SIK3 wildtype vs SIK3 knockout MC38 clones (CTG); format: cell-based, mouse; settings: sub-optimal TNF (<10 ng/ml), 72 h
Protocol: The assay was performed as follows: MC38 SIK3 KO clones were generated using CRISPR. Cells were transfected with RNP complexes (Cas9+gRNA) containing gRNAS targeting SIK3 or non-targeting sequences (control). […] Subsequently, single cell clones were generated by limiting dilution. CRISPR-derived mutations in single clones were detected by next-generation sequencing and analysed using CRISPResso. Knockout and wildtype clones were selected and plated overnight. […] Cells treated with different concentrations of inhibitor but without TNF served as no TNF control. Cell viability was measured by CTG assay.

SIK3 [7] = target: T1, SIK3 (Homo sapiens (Human), UniProt Q9Y2K2); settings: fold of the value of compound C7 (C7 = 1×)
[8] = in vivo, po, 30 mg/kg
[9] = female, C57BL/6, mouse, in vivo, 7 days
in vitro = settings: human, microsomes
SIK2 = SIK2 (Homo sapiens (Human), UniProt Q9H0K1); experiment: SIK2 kinase inhibition (IC50); settings: read-out: Kinase: IC50 (nM) SIK2
SIK3 [10] = target: T1, SIK3; experiment: SIK3 kinase inhibition (IC50); settings: read-out: Kinase: IC50 (nM) SIK3
[11] = Human plasma-protein binding
[12] = Murine plasma protein binding
MDR1 (P-gp) = MDR1 (P-gp) (Homo sapiens (Human), UniProt P08183); experiment: MDR1-MDCK effective efflux assay; settings: dog; for efflux ratio: Table 5.1B
[13] = target: MDR1 pump (P-gp), MDCK-MDR1 cells (Homo sapiens (Human), UniProt P08183); experiment: MDR1-MDCK effective efflux assay; settings: Table 5.1B
[14] = MDCK wild type permeability/efflux; settings: dog
[15] = system: MC38 colorectal carcinoma tumours; experiment: MC38 syngeneic mouse tumour model (Example 8.1); settings: MC38; for Body weight increase (%) / Non-treatment related death / Tumour growth inhibition (%): BID po
HCT116 cells = experiment: TNF-sensitised cell viability assay (CellTiter-Glo); settings: Homo sapiens, HCT-116, read-out: HCT116 IC50 (at 10 ng/ml rHuTNF)
PANC1 cells = experiment: as above; settings: Homo sapiens, PANC-1, read-out: PANC IC50 (at 100 ng/ml rHuNF)
[16] = system: NFKB activity in PANC-1 cells; experiment: TNF-induced NFKB activity (NFKB-dependent luciferase reporter); settings: 10 ng/ml rHuTNF, PANC-1 reporter cells
[17] = system: NFKB activity in MC38 cells; experiment: as above; settings: 10 ng/ml rMuTNF

Sequence of CSF1R (P07333 20-972 limits assumed): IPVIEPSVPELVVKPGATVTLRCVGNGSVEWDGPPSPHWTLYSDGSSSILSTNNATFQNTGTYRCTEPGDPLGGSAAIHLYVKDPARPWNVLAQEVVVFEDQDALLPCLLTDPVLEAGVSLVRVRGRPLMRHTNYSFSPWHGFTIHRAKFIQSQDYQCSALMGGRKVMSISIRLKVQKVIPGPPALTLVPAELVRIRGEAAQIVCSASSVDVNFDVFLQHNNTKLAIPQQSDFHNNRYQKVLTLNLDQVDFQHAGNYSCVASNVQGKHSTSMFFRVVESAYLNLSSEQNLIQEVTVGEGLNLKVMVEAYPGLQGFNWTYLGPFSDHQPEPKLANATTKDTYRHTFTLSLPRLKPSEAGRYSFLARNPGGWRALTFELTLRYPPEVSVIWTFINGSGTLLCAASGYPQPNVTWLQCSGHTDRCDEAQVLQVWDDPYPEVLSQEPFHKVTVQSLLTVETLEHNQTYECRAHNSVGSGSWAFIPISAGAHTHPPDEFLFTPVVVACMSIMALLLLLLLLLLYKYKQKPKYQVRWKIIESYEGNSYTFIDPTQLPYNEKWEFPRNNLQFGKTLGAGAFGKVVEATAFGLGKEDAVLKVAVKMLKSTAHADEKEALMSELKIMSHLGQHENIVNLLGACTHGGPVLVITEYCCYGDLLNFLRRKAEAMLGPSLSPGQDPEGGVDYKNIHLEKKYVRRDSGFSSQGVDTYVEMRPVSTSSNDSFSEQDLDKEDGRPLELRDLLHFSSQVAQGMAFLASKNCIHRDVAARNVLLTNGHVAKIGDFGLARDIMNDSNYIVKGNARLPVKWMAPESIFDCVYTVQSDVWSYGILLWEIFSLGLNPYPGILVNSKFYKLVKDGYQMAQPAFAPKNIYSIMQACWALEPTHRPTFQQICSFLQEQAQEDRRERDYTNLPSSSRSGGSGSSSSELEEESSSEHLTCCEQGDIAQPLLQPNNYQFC

SMILES: Cc1nc(Nc2ncc(C(=O)Nc3c(CF)csc3Cl)s2)cc(N2CCN(C)CC2)n1 [Compound E9, N-(2-chloro-4-(fluoromethyl)thiophen-3-yl)-2-((2-methyl-6-(4-methylpiperazin-1-yl)pyrimidin-4-yl)amino)thiazole-5-carboxamide]
- EC50 [1]: 405 nM
- EC50 [2]: 389 nM
- CSF1R residual activity (CSF1R): less than 1%
- HCK residual activity (HCK): less than 1%
- Human hepatocyte stability, Half-life [3]: 24 min
- half-life ([3]; human, hepatocytes, read-out: Human hepatocyte stability, Half-life): 21 to 30 min
- microsomal CLint ([3]; human, hepatocytes, read-out: Human hepatocyte stability, Intrinsic clearance): 58 µL/min/mg
- half-life [4]: 65 min
- microsomal CLint ([4]; read-out: Mouse hepatocyte stability, Intrinsic clearance): 21 µL/min/mg
- TGI [5]: 73%
- TNF-mediated killing in SIK3 WT vs KO MC38 clones [6]: induced TNF-mediated killing only in SIK3 WT clones
- SIK3 IC50 (nM), relative to C7 (SIK3 [7]): 0.3×
- % AUCextrap, Free ([8]; male, CD1, mouse): 0.49%
- % AUCextrap, Total ([8]; male, CD1, mouse): 0.49%
- AUCinf (nM*h), Free ([8]; male, CD1, mouse): 239.92 nM·h
- AUClast (nM*h), Free ([8]; male, CD1, mouse): 238.75 nM·h
- Rsq, Free ([8]; mouse): 0.84
- Rsq, Total ([8]; mouse): 0.84
- DLT@BID dosing [9]: n.d. @50 mg/kg
- DLT@QD dosing [9]: n.d. @50 mg/kg
- HRD in vivo @BID [9]: 50 mg/kg
- HRD in vivo @QD [9]: 50 mg/kg
- half-life (in vitro): 11 min
- microsomal CLint (in vitro): 131 µL/min/mg
- IC50 (SIK2): < 10 nM
- IC50 (SIK3 [10]): < 20 nM
- Human plasma-protein binding, Percentage unbound (%) ([11]; Table 5.1A): 1%
- recovery at 4 h ([11]; human, plasma): 92%
- Murine plasma protein binding, Percentage unbound (%) ([12]; Table 5.1A): 1%
- recovery at 4 h ([12]; mouse, plasma): 88%
- Papp (MDR1 (P-gp); MDCK-MDR1): 5 ×10⁻⁶ cm/s
- efflux ratio (MDR1 (P-gp); MDCK-MDR1, MDCK-MDR1 cells, Mean Efflux Ratio (MDR1)): 20 to 30
- efflux ratio (MDR1 (P-gp); MDCK-MDR1, P-gP driven efflux ratio (MDR1/wt)): 27
- MDCK-MDR1 cells, Mean Efflux Ratio (MDR1) [13]: 26
- Papp [14]: 10 ×10⁻⁶ cm/s
- efflux ratio [14]: 1
- Body weight increase (%) ([15]; 25 mg/Kg): 16.8%
- Non-treatment related death ([15]; 25 mg/Kg): 2/16
- Tumour growth inhibition (%) ([15]; 25 mg/Kg): 74%
- average TGI ([15]; 25 mg/kg BID): 72%
- Body weight increase (%) ([15]; 50 mg/Kg): 18.7%
- Non-treatment related death ([15]; 50 mg/Kg): 3/16
- Tumour growth inhibition (%) ([15]; 50 mg/Kg): 69%
- IC50 (HCT116 cells): < 100 nM
- IC50 (PANC1 cells): < 100 nM
- Inhibition of NFKB activity (PANC-1) [16]: ++
- Inhibition of NFKB activity (MC38) [17]: ++
